From US20250115571A1, “OXOPIPERAZINE DERIVATIVES” (Inthera Bioscience AG, priority 2017, published 2025)

Tests used:
CaSki = experiment: 9-day colony survival assay (CFA); format: cell-based; settings: Homo sapiens, Ca-Ski, 216 h, CaSki (cervix), read-out: GI50 (50% growth inhibition)
Description: Cell culture. CaSki cells (cervical cancer) were obtained from CLS GmbH, Eppelheim, Germany (cat #300145) and subcultured in ready-to-use RPMI1640 Media (CLS #820700) after addition of “Antibiotic Antimycotic Solution” (Sigma-Aldrich, St Louis, USA) at 1:100 dilution. The cells were expanded, and aliquots kept frozen in liquid nitrogen according to manufacturer's instructions; tested for mycoplasma contamination and genotyped (Microsynth AG, Balgach, Switzerland). Once thawed, aliquots were passaged every second or third day at a seed density of 20′000 cells/cm^2; and used for a maximum of twenty passages. For passaging, cell culture flasks were rinsed twice with Ca++/Mg++-free Phosphate-Buffered Saline (DPBS, CLS #860015) and incubated with Accutase (CLS #830100) for 15 min at 37° C. Cells were resuspended in a four-fold volume of ready-to-use RPMI, centrifuged at 300 g for ten minutes, the supernatant discarded and the cells resuspended in ready-to-use RPMI1640 by pipetting up and down five times with a serological pipette. Cell density was determined with a Via-1 Cassette (Chemometec, Allerod, Denmark) on a Nucleocounter NC 3000 (Chemometec). Where not stated, consumables and chemicals were purchased from well-known suppliers.
Preparation of the cells for CFA. Cell culture flasks were rinsed twice with DPBS and incubated with Accutase for 15 min at 37° C. Cells were resuspended in a four-fold volume of ready-to use RPMI, centrifuged at 300 g for ten minutes, the supernatant discarded and the cells resuspended in ready-to-use RPMI1640 by pipetting up and down ten times with a serological pipette. Cell density was determined with a Via-1 Cassette on a Nucleocounter NC 3000. The required amount of cells was first diluted 1:10 in ready-to-use RPMI; cells pipetted five times up-down with a serological pipette; and the 1:10 solution added to the final volume needed for the whole assay setup. Cells were mixed again by pipetting up and down twenty times with a serological pipette. The cell density used for the experiment was of 140 cells/ml.
Seeding. Cells were seeded row-wise in 12-well plates, while triplicates were treated column-wise (i.e. all the first rows were seeded first, then the second rows, and finally the third rows). One and a half ml cell suspension solution (a total of 210 cells) were added per well.
Treatment. Compound stock solutions were prepared at a concentration of 30 mM in 50% DMSO/50% water; and diluted in the same solution so that the volume added to the wells was of 2.5 μl and the final DMSO well concentration of 0.08%. Untreated cells (negative controls) were incubated in a) medium only; and b) 0.08% DMSO. […] The plates were swirled gently after addition of the compounds and the cells incubated for nine days at 37° C. Culture incubation solutions were replaced after five days.
Staining. Colonies were washed twice with ice-cold DPBS and fixed on ice with 1 ml ice-cold 10% methanol solution for 30 min. The methanol solution was removed and colonies incubated with 0.1% Crystal Violet/DBPS for 20 min at room temperature. The wells were rinsed consecutively with 1.5, 1, and 0.5 ml water at room temperature and let dry.
Destaining and data evaluation. […] Absorbance was measured at 600 nm with a SpectraMax M2e reader (Molecular Devices, Sunnyvale, CA, USA). Percentage of colony formation was calculated from the average of the well triplicates compared to the untreated DMSO controls after subtraction of blank values. […]

[1] = tested on: hormone-refractory DU-145 human prostate cancer cells; experiment: Cell-derived xenograft mouse model for prostate cancer (DU-145 CDX); format: in vivo; settings: p.o. QD × 4 weeks; for T/C (tumor-to-control ratio, volume/volume): day 35
Description: Male BALB/c nude mice (7-9 weeks of age) were injected with hormone-refractory DU-145 human prostate cancer cells. The cells were inoculated subcutaneously into the left flank of 48 mice. When tumors reached a mean volume of approximately 105 mm^3, mice were randomly assigned to eight treatment groups of each six mice (TABLE 12). Body weights were measured three times weekly prior to the initiation of dosing and daily thereafter. Tumor burden was assessed by caliper measurement three times weekly. Dosing breaks were applied when tolerability issues arose (body weight loss>10%). The study was terminated 4 weeks post first dosing. The experiment was performed in the Crown Bioscience Ltd. (Beijing) testing facility (Ground Floor, Light Muller Building, Changping Sector of Zhongguancun Scientific Park, No. 21 Huoju Road, Changping District, Beijing, CHIN).

PC3 = experiment: 9-day colony survival assay (CFA); format: cell-based; settings: Homo sapiens, PC-3, 216 h, PC3 (prostate), read-out: GI50 (50% growth inhibition)
A549 = experiment: 9-day colony survival assay (CFA); format: cell-based; settings: Homo sapiens, 216 h, A549 (lung), read-out: GI50 (50% growth inhibition)
[2] = tested on: HCT116 human colon cancer cells; experiment: Cell-derived xenograft mouse model for colorectal cancer (HCT116 CDX); format: in vivo; settings: for T/C (tumor-to-control ratio, volume/volume): day 37
Description: Female BALB/c nude mice (8-9 weeks of age) were injected with HCT116 human colon cancer cells. The cells were inoculated subcutaneously into the left flank of 48 mice. When tumors reached a mean volume of approximately 100 mm^3, mice were randomly assigned to eight treatment groups of each six mice (TABLE 14). Body weights were measured three times weekly prior to the initiation of dosing and daily thereafter. Tumor burden was assessed by caliper measurement twice weekly. Dosing breaks were applied when tolerability issues arose (body weight loss>10%). The study was terminated four weeks post first dosing. The experiment was performed in the Crown Bioscience Ltd. (Beijing) testing facility (Ground Floor, Light Muller Building, Changping Sector of Zhongguancun Scientific Park, No. 21 Huoju Road, Changping District, Beijing, CHN).

HCT116 = experiment: 9-day colony survival assay (CFA); format: cell-based; settings: Homo sapiens, HCT-116, 216 h, HCT116 (colon), read-out: GI50 (50% growth inhibition)

| SMILES | GI50 (CaSki) [nM] | Tumor Size day 35 (Mean ± SEM) ([1]; 3 mg/kg) [mm^3] | T/C (tumor-to-control ratio, volume/volume) ([1]; 3 mg/kg) [%] | GI50 (PC3) [nM] | GI50 (A549) [nM] | Tumor Size day 37 (Mean ± SEM) ([2]; 3 mg/kg, p.o. QD) [mm^3] | p vs. Group-2 (Avastin, 10 mg/kg, BIW) ([2]; 3 mg/kg, p.o. QD) | T/C (tumor-to-control ratio, volume/volume) ([2]; 3 mg/kg, p.o. QD) [%] | Tumor Size day 37 (Mean ± SEM) ([2]; 6 mg/kg, p.o. QD) [mm^3] | p vs. Group-2 (Avastin, 10 mg/kg, BIW) ([2]; 6 mg/kg, p.o. QD) | T/C (tumor-to-control ratio, volume/volume) ([2]; 6 mg/kg, p.o. QD) [%] | GI50 (HCT116) [nM] | other results |
| --- | --- | --- | --- | --- | --- | --- | --- | --- | --- | --- | --- | --- | --- |
| CC(C)C[C@@H]1NCCN([C@@H](CC(C)C)C(=O)N2CCC3(C[C@@H]2C)OCC(CN2CCCC2)CO3)C1=O (stereo partly drawn) [Compound 258, (3S)-1-[(2S)-4-methyl-1-oxo-1-[(3s,6s,8S)-8-methyl-3-(pyrrolidin-1-ylmethyl)-1,5-dioxa-9-azaspiro[5.5]undec-an-9-yl]pentan-2-yl]-3-(2-methylpropyl)piper-azin-2-one (^≠), isomer Z] | 2 | 105 ± 25 | 15.2 | 3 | 5 | 436.2 ± 58.9 | Group-2 vs. Group-5, p = 0.028; | 36.7 | 253.2 ± 39.2 | Group-2 vs. Group-4, p = 0.001; | 21.3 | 1.5 | Tumor Size day 35 (Mean ± SEM) ([1]; 1 mg/kg): 378 ± 27 mm^3; T/C (tumor-to-control ratio, volume/volume) ([1]; 1 mg/kg): 54.5%; Tumor Size day 35 (Mean ± SEM) ([1]; 6 mg/kg): 32 ± 2 mm^3; T/C (tumor-to-control ratio, volume/volume) ([1]; 6 mg/kg): 4.6%; Tumor Size day 35 (Mean ± SEM) ([1]; 10 mg/kg): 47 ± 4 mm^3; T/C (tumor-to-control ratio, volume/volume) ([1]; 10 mg/kg): 6.8%; Tumor Size day 37 (Mean ± SEM) ([2]; 20 mg/kg, p.o. BIW): 696.8 ± 93.7 mm^3; p vs. Group-2 (Avastin, 10 mg/kg, BIW) ([2]; 20 mg/kg, p.o. BIW): Group-2 vs. Group-3, p = 0.865;; T/C (tumor-to-control ratio, volume/volume) ([2]; 20 mg/kg, p.o. BIW): 58.7% |
| CC(C)C[C@@H]1NCCN([C@@H](CC(C)C)C(=O)N2CCC3(C[C@@H]2C)OCC(CN2CCC4(CC2)CC4)CO3)C1=O (stereo partly drawn) [Compound 279, (3S)-1-[(2S)-4-methyl-1-oxo-1-[(3s,6s,8S)-3-{6-azaspiro[2.5]octan-6-ylmethyl}-8-methyl-1,5-dioxa-9-azaspiro[5.5]undec-an-9-yl]pentan-2-yl]-3-(2-methylpropyl)piper-azin-2-one (^≠), isomer Z] | 4 | 516 ± 59 | 74.5 | 1.5 | 5 | – | – | – | 1064.0 ± 141.1 | Group-2 vs. Group-6, p = 0.070; | 89.6 | 1 | – |
| CC(C)C[C@@H]1NCCN([C@@H](CC(C)C)C(=O)N2CCC3(C[C@@H]2C)OCC(CN2CCC2)CO3)C1=O (stereo partly drawn) [Compound 284, (3S)-1-[(2S)-4-methyl-1-oxo-1-[(3s,6s,8S)-3-(azetidin-1-ylmethyl)-8-methyl-1,5-dioxa-9-azaspiro[5.5]undec-an-9-yl]pentan-2-yl]-3-(2-methylpropyl)piper-azin-2-one (^≠), isomer Z] | 6 | 347 ± 48 | 50.1 | 3 | 10 | 827.4 ± 125.7 | Group-2 vs. Group-8, p = 0.509; | 69.7 | 942.0 ± 114.9 | Group-2 vs. Group-7, p = 0.165; | 79.3 | 1.5 | – |
